Laboratory results taken from ChEMBL document CHEMBL4619777, “A New Class of Dengue and West Nile Virus Protease Inhibitors with Submicromolar Activity in Reporter Gene DENV-2 Protease and Viral Replication Assays” (J Med Chem, 2020).
Calls of active or inactive are those of the source.

How the values were obtained:
[1] = molecular target: Genome polyprotein (West Nile virus) (UniProt P06935); test: Inhibition of West Nile virus NS2B-NS3 protease expressed in Escherichia coli BL21 lambda (DE3) cells at 50 uM using Abz-Gly-Leu-Lys-Arg-Gly-Gly-3-(NO2)Tyr as substrate preincubated for 15 mins followed by substrate addition measured for 15 mins by fluorimetric analysis relative to control
Sequence of Genome polyprotein (West Nile virus) (P06935 whole entry): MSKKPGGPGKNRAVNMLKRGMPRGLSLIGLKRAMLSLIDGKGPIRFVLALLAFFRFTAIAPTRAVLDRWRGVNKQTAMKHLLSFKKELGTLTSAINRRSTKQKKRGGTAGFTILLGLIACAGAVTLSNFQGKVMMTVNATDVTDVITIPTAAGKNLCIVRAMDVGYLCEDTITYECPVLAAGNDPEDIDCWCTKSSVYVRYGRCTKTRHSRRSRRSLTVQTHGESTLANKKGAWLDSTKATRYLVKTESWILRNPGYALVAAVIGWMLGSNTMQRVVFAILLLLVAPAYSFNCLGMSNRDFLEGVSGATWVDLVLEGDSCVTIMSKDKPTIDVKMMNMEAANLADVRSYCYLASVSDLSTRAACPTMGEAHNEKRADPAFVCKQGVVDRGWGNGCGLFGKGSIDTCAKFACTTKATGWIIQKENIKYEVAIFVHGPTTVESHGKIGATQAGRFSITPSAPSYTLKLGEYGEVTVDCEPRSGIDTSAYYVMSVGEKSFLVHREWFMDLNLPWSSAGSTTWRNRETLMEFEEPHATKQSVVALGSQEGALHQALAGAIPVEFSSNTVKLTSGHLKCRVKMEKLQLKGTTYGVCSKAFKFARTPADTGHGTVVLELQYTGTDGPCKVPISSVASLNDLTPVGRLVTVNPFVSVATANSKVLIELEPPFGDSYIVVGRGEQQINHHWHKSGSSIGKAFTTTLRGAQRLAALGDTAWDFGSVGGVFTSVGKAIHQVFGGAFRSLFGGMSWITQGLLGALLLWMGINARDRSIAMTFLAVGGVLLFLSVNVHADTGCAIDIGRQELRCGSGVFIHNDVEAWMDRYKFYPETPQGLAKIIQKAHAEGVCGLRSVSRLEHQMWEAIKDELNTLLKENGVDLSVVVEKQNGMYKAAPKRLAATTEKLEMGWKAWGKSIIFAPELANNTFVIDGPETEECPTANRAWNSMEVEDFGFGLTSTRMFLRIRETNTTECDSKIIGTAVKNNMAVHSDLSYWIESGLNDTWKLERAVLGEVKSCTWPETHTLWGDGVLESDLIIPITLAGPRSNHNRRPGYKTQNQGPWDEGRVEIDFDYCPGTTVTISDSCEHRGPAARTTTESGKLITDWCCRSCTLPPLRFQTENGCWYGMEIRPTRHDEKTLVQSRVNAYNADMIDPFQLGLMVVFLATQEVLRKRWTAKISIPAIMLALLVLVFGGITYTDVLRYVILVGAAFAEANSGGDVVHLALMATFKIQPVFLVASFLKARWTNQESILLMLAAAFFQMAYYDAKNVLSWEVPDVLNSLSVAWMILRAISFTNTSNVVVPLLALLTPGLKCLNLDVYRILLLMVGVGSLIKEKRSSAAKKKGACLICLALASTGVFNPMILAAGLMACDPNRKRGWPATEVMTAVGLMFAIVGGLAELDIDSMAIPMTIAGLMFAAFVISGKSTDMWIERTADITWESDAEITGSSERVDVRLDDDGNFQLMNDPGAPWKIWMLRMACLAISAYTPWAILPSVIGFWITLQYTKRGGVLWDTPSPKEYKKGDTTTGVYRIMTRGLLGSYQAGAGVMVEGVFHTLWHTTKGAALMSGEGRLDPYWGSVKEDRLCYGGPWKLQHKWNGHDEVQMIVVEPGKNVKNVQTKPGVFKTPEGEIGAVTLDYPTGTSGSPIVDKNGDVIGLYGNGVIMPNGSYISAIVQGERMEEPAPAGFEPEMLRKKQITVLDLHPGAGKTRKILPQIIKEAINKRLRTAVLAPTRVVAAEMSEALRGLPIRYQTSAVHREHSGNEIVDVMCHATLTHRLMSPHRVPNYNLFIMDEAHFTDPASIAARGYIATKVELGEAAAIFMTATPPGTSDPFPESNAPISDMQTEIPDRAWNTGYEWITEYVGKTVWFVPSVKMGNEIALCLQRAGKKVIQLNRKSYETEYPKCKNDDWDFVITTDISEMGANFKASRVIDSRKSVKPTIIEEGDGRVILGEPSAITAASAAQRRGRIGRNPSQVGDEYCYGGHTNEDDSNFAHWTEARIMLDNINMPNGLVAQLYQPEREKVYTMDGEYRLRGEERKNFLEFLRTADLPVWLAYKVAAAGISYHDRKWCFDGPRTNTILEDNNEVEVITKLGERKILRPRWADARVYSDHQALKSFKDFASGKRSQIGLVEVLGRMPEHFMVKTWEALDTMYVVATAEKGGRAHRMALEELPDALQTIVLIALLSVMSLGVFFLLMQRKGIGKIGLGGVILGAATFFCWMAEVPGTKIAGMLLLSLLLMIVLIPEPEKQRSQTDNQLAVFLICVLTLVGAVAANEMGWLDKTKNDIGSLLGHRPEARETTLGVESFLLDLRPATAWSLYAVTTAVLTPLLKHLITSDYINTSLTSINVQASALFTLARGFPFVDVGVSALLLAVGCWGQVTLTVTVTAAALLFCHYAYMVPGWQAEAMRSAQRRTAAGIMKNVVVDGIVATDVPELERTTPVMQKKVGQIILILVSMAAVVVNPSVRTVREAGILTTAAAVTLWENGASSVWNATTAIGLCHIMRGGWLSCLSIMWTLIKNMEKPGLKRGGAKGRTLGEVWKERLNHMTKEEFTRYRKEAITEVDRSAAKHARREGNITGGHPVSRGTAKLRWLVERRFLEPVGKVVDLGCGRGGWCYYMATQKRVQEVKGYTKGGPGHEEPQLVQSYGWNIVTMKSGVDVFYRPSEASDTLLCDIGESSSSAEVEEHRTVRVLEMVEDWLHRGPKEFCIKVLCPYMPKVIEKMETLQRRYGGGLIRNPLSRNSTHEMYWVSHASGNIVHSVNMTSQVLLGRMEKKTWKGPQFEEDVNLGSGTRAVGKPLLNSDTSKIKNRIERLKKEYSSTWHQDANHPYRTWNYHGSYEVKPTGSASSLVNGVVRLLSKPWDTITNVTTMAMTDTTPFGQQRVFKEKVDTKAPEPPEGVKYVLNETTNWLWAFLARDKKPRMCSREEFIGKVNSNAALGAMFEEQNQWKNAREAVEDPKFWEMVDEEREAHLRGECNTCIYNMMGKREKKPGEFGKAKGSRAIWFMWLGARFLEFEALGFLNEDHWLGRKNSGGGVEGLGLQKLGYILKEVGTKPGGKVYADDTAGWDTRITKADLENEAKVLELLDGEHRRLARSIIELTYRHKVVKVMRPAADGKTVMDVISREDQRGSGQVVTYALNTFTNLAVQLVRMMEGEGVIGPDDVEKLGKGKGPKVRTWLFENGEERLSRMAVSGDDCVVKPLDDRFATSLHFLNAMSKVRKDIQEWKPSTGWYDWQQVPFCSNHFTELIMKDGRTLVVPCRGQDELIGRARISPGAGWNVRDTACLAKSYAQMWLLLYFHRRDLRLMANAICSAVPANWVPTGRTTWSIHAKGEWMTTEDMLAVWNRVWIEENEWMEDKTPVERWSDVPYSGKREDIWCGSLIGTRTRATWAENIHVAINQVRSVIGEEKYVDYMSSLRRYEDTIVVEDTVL

[2] = molecular target: Genome polyprotein (dengue virus type 2) (UniProt P29990); test: Inhibition of Dengue virus serotype 2 NS2B-NS3 protease expressed in Escherichia coli BL21 lambda (DE3) cells at 50 uM using Abz-Nle-Lys-Arg-Arg-Ser-3-(NO2)Tyr as substrate preincubated for 15 mins followed by substrate addition and measured for 15 mins by FRET assay relative to control
[3] = Cytotoxicity against human HeLa cells assessed as reduction in cell viability measured after 24 hrs by celltiter-blue assay; assay type: cell-based
[4] = molecular target: Genome polyprotein (dengue virus type 2) (UniProt P29990); test: Inhibition of Dengue virus serotype 2 NS2B-NS3 protease transfected in human HeLa cells at 12.5 uM measured after 24 hrs by Renilla-luciferase reporter gene assay relative to control; assay type: cell-based
Genome polyprotein [5] = molecular target: T1, Genome polyprotein (dengue virus type 2, UniProt P29990); test: Inhibition of Dengue virus serotype 2 NS2B-NS3 protease transfected in human HeLa cells measured after 24 hrs by Renilla-luciferase reporter gene assay; assay type: cell-based
Trypsin [6] = molecular target: T2, Trypsin (Homo sapiens, UniProt P07477+P07478+P35030); test: Inhibition of trypsin (unknown origin) at 50 uM using Boc-Val-Pro-Arg-AMC as substrate preincubated for 15 mins followed by substrate addition and measured for 15 mins by fluorimetric assay relative to control; assay type: protein assay; details: for inhibition at 0.25 h, 50 µM: trypsin (unknown origin), probe Boc-Val-Pro-Arg-AMC; for inhibition (INH): 0.25 h, 50 µM
Trypsin [7] = molecular target: T2, Trypsin; test: Inhibition of trypsin (unknown origin) using Boc-Val-Pro-Arg-AMC as substrate preincubated for 15 mins followed by substrate addition and measured for 15 mins by fluorimetric assay; assay type: protein assay
Prothrombin = Prothrombin (Homo sapiens, UniProt P00734); test: Inhibition of thrombin (unknown origin) at 25 uM using Boc-Val-Pro-Arg-AMC as substrate preincubated for 15 mins followed by substrate addition and measured for 15 mins by fluorimetric assay; details: 0.25 h
[8] = Permeability of the compound assessed as drug level in donor plate at 200 uM measured after 5 hrs at pH 7.4 by PAMPA; assay type: ADME; details: pH 7.4, 5 h
[9] = Permeability of the compound assessed as mass retention at 200 uM measured after 5 hrs at pH 7.4 by PAMPA; assay type: ADME; details: pH 7.4, 5 h
[10] = Permeability of the compound at 200 uM measured after 5 hrs at pH 7.4 by PAMPA; assay type: ADME; details: read-out: permeability
[11] = Permeability of the compound assessed as drug level in acceptor plate at 200 uM measured after 5 hrs at pH 7.4 by PAMPA; assay type: ADME; details: pH 7.4, 5 h
Genome polyprotein [12] = molecular target: T1, Genome polyprotein; test: Inhibition of Dengue virus serotype 2 NS2B-NS3 protease expressed in Escherichia coli BL21 lambda (DE3) cells using Abz-Nle-Lys-Arg-Arg-Ser-3-(NO2)Tyr as substrate preincubated for 15 mins followed by substrate addition and measured for 15 mins by FRET assay
Genome polyprotein [13] = molecular target: Genome polyprotein (West Nile virus, UniProt P06935); test: Inhibition of West Nile virus NS2B-NS3 protease expressed in Escherichia coli BL21 lambda (DE3) cells using Abz-Gly-Leu-Lys-Arg-Gly-Gly-3-(NO2)Tyr as substrate preincubated for 15 mins followed by substrate addition measured for 15 mins by fluorimetric analysis
Sequence of Genome polyprotein (West Nile virus, UniProt P06935) (P06935 1371-1501 limits assumed): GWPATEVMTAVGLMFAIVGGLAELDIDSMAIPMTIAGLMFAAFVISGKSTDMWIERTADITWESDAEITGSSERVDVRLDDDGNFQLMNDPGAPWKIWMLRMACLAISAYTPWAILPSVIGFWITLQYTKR
Sequence of Genome polyprotein (West Nile virus, UniProt P06935) (P06935 1502-2120 limits assumed): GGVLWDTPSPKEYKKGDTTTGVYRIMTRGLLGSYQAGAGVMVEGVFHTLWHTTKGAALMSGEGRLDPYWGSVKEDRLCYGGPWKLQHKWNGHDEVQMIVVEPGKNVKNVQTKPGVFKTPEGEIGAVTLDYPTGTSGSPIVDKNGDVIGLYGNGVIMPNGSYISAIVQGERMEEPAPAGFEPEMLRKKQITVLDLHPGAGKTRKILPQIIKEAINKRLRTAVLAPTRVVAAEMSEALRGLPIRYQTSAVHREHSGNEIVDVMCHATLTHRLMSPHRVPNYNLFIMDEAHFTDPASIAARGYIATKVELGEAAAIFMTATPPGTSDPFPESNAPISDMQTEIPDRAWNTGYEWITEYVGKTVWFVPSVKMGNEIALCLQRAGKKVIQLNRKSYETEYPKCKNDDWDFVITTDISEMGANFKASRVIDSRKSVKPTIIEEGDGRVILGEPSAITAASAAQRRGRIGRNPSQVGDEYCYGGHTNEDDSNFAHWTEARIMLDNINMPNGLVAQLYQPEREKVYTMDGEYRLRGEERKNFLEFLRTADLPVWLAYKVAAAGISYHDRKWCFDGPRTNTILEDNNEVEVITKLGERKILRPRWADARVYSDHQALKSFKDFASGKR

dengue virus type 2 [14] = test: Antiviral activity against DENV2 infected in human HuH7 cells assessed as reduction in virus titer at 12.5 uM measured after 48 hrs relative to control; assay type: functional; details: Huh-7, 48 h
Huh-7 = test: Cytotoxicity against human HuH7 cells assessed as reduction in cell viability at 12 uM measured after 48 hrs by celltiter-blue assay; assay type: cell-based; details: huh-7, 48 h
dengue virus type 2 [15] = test: Antiviral activity against DENV2 infected in human HuH7 cells assessed as reduction in virus titer measured after 48 hrs; assay type: functional, organism-based; details: Huh-7, 48 h
dengue virus type 2 [16] = test: Antiviral activity against DENV2 infected in human HuH7 cells assessed as reduction in virus titer at 10 uM measured after 48 hrs relative to control; assay type: functional; details: Huh-7, 48 h
[17] = molecular target: Genome polyprotein (dengue virus type 2) (UniProt P29990); test: Competitive inhibition of Dengue virus serotype 2 NS2B-NS3 protease expressed in Escherichia coli BL21 lambda (DE3) cells using varying levels of Abz-Nle-Lys-Arg-Arg-Ser-3-(NO2)Tyr as substrate by Cheng-Prusoff plot analysis
[18] = molecular target: Genome polyprotein (West Nile virus) (UniProt P06935); test: Competitive inhibition of West Nile virus NS2B-NS3 protease expressed in Escherichia coli BL21 lambda (DE3) cells using varying levels of Abz-Gly-Leu-Lys-Arg-Gly-Gly-3-(NO2)Tyr as substrate by Cheng-Prusoff plot analysis

Row | Structure (SMILES) | inhibition [1] [%] | inhibition [2] [%] | CC50 at 24 h [3] [µM] | inhibition [4] [%] | EC50 (Genome polyprotein [5]) [µM] | inhibition (INH) (Prothrombin) | Drug uptake [8] [µM] | R% [9] [%] | Papp at 5 h, 200 µM [10] [×10⁻⁶ cm/s] | Drug uptake [11] [µM] | IC50 (Genome polyprotein [12]) [µM] | IC50 (Genome polyprotein [13]) [µM] | Activity (Huh-7) | inhibition (INH) (Trypsin [6]) | also measured
1 | CCCCCC(=O)N[C@@H](C(=O)NCc1ccc(NC(=N)N)cc1)c1ccc(OCc2ccccc2)cc1.O=C(O)C(F)(F)F | 34.2 | 49.9 | > 50 | 54.9 | 9.9 | Not Active | – | – | – | – | – | – | – | – | inhibition at 0.25 h, 50 µM (Trypsin [6]): > 50%; IC50 (Trypsin [7]): 44 µM
2 | NC(=O)N1c2ccccc2C=Cc2ccccc21 [CARBAMAZEPINE] | – | – | – | – | – | – | 171.6 | 2.3 | 8.1 | 35.7 | – | – | – | – | –
3 | O=C1NC(=O)C(c2ccccc2)(c2ccccc2)N1 [PHENYTOIN] | – | – | – | – | – | – | 149.6 | 17.4 | 6 | 23.4 | – | – | – | – | –
4 | CCCCCCC(=O)N[C@H](C(=O)NCc1ccc(NC(=N)N)cc1)c1ccc(OCc2ccccc2)cc1.O=C(O)C(F)(F)F | 101 | 97.2 | > 50 | 71 | 0.52 | Not Active | 167.3 | 15.7 | 0.4 | 1.9 | 6.8 | 17 | Non-Toxic | Not Active | inhibition at 12.5 µM (dengue virus type 2 [14]): 81%
5 | N=C(N)Nc1ccc(CNC(=O)[C@@H](NC(=O)c2ccc(Oc3ccccc3)cc2)c2ccc(OCc3ccccc3)cc2)cc1.O=C(O)C(F)(F)F | 101 | 99.5 | > 12.5 | 68.5 | 3 | Not Active | 154.5 | 22.4 | 0.3 | 1.2 | 4 | 6.2 | Non-Toxic | Not Active | EC50 (dengue virus type 2 [15]): 9.3 µM; inhibition at 12.5 µM (dengue virus type 2 [14]): 80.5%
6 | CCCCCC(=O)N[C@H](C(=O)NCc1ccc(C(=N)N)cc1)c1ccc(OCc2ccccc2)cc1.O=C(O)C(F)(F)F | 39.4 | 20.6 | > 50 | 49.1 | – | Not Active | – | – | – | – | – | – | – | – | inhibition at 0.25 h, 50 µM (Trypsin [6]): > 50%; IC50 (Trypsin [7]): 45 µM
7 | N=C(N)Nc1ccc(CNC(=O)[C@@H](NC(=O)c2cccc(Oc3ccccc3)c2)c2ccc(OCc3ccccc3)cc2)cc1.O=C(O)C(F)(F)F | 99.8 | 101 | > 25 | 67.5 | 7.3 | Not Active | 168.9 | 15.2 | 0.2 | 1.1 | 4.9 | 6.1 | – | Not Active | –
8 | CCCCCCCC(=O)N[C@H](C(=O)NCc1ccc(NC(=N)N)cc1)c1ccc(OCc2ccccc2)cc1.O=C(O)C(F)(F)F | 104 | 100 | > 50 | 71.4 | 0.83 | Not Active | 164.5 | 17.3 | 0.3 | 1.5 | 4.8 | 11 | Non-Toxic | Not Active | EC50 (dengue virus type 2 [15]): 7.2 µM; inhibition at 10 µM (dengue virus type 2 [16]): 57.7%
9 | N=C(N)NCCC[C@H](NC(=O)c1ccccc1)C(=O)N[C@@H](CCCCN)C(=O)N[C@@H](C(N)=O)c1ccc(OCc2ccccc2)cc1 | 86.7 | – | > 100 | 40.9 | 16 | Not Active | – | – | – | – | 0.68 | 3.9 | Non-Toxic | Not Active | EC50 (dengue virus type 2 [15]): 8.6 µM; Drug uptake ([8]; BLD = below limit of detection): Bld; inhibition at 12.5 µM (dengue virus type 2 [14]): 52.3%
10 | N=C(N)Nc1ccc(CNC(=O)[C@@H](NC(=O)c2ccc(OC3CCCCC3)cc2)c2ccc(OCc3ccccc3)cc2)cc1.O=C(O)C(F)(F)F | 99.7 | 98.2 | > 12.5 | 70.4 | 2.2 | Not Active | 177.4 | 10.8 | 0.3 | 1.6 | 5.9 | 8.3 | Non-Toxic | Not Active | inhibition at 12.5 µM (dengue virus type 2 [14]): 72.6%
11 | Cn1c(=O)c2c(ncn2C)n(C)c1=O [CAFFEINE] | – | – | – | – | – | – | 159.5 | 9.6 | 7.7 | 31.9 | – | – | – | – | –
12 | CCCCCC(=O)N[C@H](C(=O)NCc1ccc(CN)cc1)c1ccc(OCc2ccccc2)cc1.O=C(O)C(F)(F)F | 84.8 | 94.9 | 4.8 | – | – | Not Active | – | – | – | – | 4.9 | 8.2 | – | Not Active | Ki (Genome polyprotein [12]): 3.8 µM; inhibition [17]: Active
13 | N=C(N)Nc1ccc(CNC(=O)[C@@H](NC(=O)Cc2ccc(-c3ccccc3)cc2)c2ccc(OCc3c(Cl)cccc3Cl)cc2)cc1.O=C(O)C(F)(F)F | 101 | 101 | > 50 | 31.7 | 39 | Not Active | – | – | – | – | 0.54 | 1.2 | – | Not Active | Ki (Genome polyprotein [12]): 0.46 µM; Drug uptake ([8]; BLD = below limit of detection): Bld; Ki (Genome polyprotein [13]): 1 µM; inhibition [17]: Active; inhibition [18]: Active
14 | N=C(N)Nc1ccc(CNC(=O)[C@@H](NC(=O)c2ccc(-c3ccccc3)cc2)c2ccc(OCc3ccccc3)cc2)cc1.O=C(O)C(F)(F)F | 99.4 | 101 | > 50 | 67 | 7.6 | Not Active | – | – | – | – | 1.8 | 7.4 | – | – | inhibition at 0.25 h, 50 µM (Trypsin [6]): > 50%; IC50 (Trypsin [7]): 31 µM
